# Measurements taken from patent EP0514268A1, “Substituted amino acid azetidinyl pyridone derivatives, their preparation and use as medicines” (LABORATORIOS DEL DR. ESTEVE, S.A., priority 1991, dated 1992).
# Tests used:
# [1] = test system: Sal. typhimurium ATCC 14028; test: Antimicrobial activity, agar dilution; assay type: cell-based, Salmonella typhimurium; details: Salmonella enterica, 20 h, Agar Dextrose dilutions, 37°C, 20 heures, read-out: Activité pharmacologique antimicrobienne (concentrations)
# From the text: (§1) L'activité pharmacologique antimicrobienne de ces composés a été étudiée selon les références exposées ci-dessous.
# (§2) Activité pharmacologique antimicrobienne : G.L. Daquet et Y.A. Chabbect, techniques en bactériologie, Vol. 3, Flammarion Médecine-Sciences, Paris 1972, et W.B. Hugo et A.D. Rusell, Pharmaceutical Microbiology, Blackwell Scientific Publications, London, 1977.
# (§3) Milieu de culture et solvant : Agar d'antibiotiques n° 1 (Oxoid CM 327) Bouillon de triptone-soja (Oxoid CM 129) Solution Physiologique Ringer 1/4 (Oxoid BR 52) Agar Dextrose (BBL 11165)
# (§4) Microorganismes : "Bacillus subtilis" ATCC 6633 "Citrobacter freundii" ATCC 112606 "Enterobacter aerogenes" ATCC 15038 "Enterobacter cloacae" ATCC 23355 "Bacillus cereus" ATCC 1178 "Escherichia coli" ATCC 10799 "Escherichia coli" ATCC 23559 "Klebsiella pneumoniae" ATCC 10031 "Proteus vulgaris" ATCC 8427 "Morg. morganii" ATCC 8019 "Pseudomonas aeruginosa" ATCC 9721 "Pseudomonas aeruginosa" ATCC 10145 "Salmonella typhimurium" ATCC 14028 "Salmonella typhimurium" ATCC 6539 "Serratia marcescens" ATCC 13880 "Shigella flexnerii" ATCC 12022 "Staphylococcusepidermis" ATCC 155-1 "Staphylococcus aureus" ATCC 25178 "Streptococcus faecalis" ATCC 10541.
# (§5) Chacun des microorganismes est ensemencé par strie dans des tubes d'Agar d'antibiotiques n° 1, et mis en incubation pendant 20 heures à 37°C. Ensuite, on prend une anse de culture, on ensemence dans un bouillon de Triptone-soja et on incube pendant 20 heures à 37°C. On dilue à 1/4 la culture obtenue avec une solution physiologique Ringer, de façon à obtenir une suspension normalisée de […] pour chaque organisme.
# (§6) A partir d'une solution de 100 µg/ml, chaque produit est dilué dans l'Agar Dextrose (préalablement fondu et maintenu à 50°C) par dilutions successives de façon à obtenir les concentrations suivantes : 64-32-16-8-4-2-1-0,5-0,25-0,125 µg de dérivé/ml du milieu.
# (§7) Postérieurement, chaque concentration de chaque produit est répartie dans des boîtes de Petri de 10 cm de diamètre, à raison de 10 ml de milieu par boîte et autant de boîtes que de microorganismes à tester.
# (§8) Une fois le milieu refroidi, les boîtes sont ensemencées avec les inoculations à raison de 0,4 ml d'inoculation par boîte. On les étend avec une anse de Driglasky et on recueille le surnageant. Les boîtes ensemencées sont incubées à 37°C pendant 20 heures.
# (§9) Les résultats obtenus sont décrits dans les tableaux suivants. Les concentrations sont données en µg/ml.
# Staph. aureus ATCC 25178 = test: Antimicrobial activity, agar dilution; assay type: cell-based, Staphylococcus aureus; details: Staphylococcus aureus, ATCC25178, 20 h, Agar Dextrose dilutions, 37°C, 20 heures, read-out: Activité pharmacologique antimicrobienne (concentrations)
# From the text: as §1, §2, §3, §4, §5, §6, §7, §8, §9
# [2] = test system: Kleb. pneumoniae ATCC 10031; test: Antimicrobial activity, agar dilution; assay type: cell-based, Klebsiella pneumoniae; details: Klebsiella pneumoniae, ATCC10031, 20 h, Agar Dextrose dilutions, 37°C, 20 heures, read-out: Activité pharmacologique antimicrobienne (concentrations)
# From the text: as §1, §2, §3, §4, §5, §6, §7, §8, §9
# [3] = test system: Citr. freundii ATCC 11606; test: Antimicrobial activity, agar dilution; assay type: cell-based, Citrobacter freundii; details: Citrobacter freundii, ATCC11606, 20 h, Agar Dextrose dilutions, 37°C, 20 heures, read-out: Activité pharmacologique antimicrobienne (concentrations)
# From the text: as §1, §2, §3, §4, §5, §6, §7, §8, §9
# [4] = test system: Ent. aerogenes ATCC 15038; test: Antimicrobial activity, agar dilution; assay type: cell-based, Enterobacter aerogenes; details: Klebsiella aerogenes, ATCC15038, 20 h, Agar Dextrose dilutions, 37°C, 20 heures, read-out: Activité pharmacologique antimicrobienne (concentrations)
# From the text: as §1, §2, §3, §4, §5, §6, §7, §8, §9
# Ent. cloacae ATCC 23355 = test: Antimicrobial activity, agar dilution; assay type: cell-based, Enterobacter cloacae; details: Enterobacter cloacae, ATCC23355, 20 h, Agar Dextrose dilutions, 37°C, 20 heures, read-out: Activité pharmacologique antimicrobienne (concentrations)
# From the text: as §1, §2, §3, §4, §5, §6, §7, §8, §9
# [5] = test system: Serr. marcescens ATCC 13880; test: Antimicrobial activity, agar dilution; assay type: cell-based, Serratia marcescens; details: Serratia marcescens, ATCC13880, 20 h, Agar Dextrose dilutions, 37°C, 20 heures, read-out: Activité pharmacologique antimicrobienne (concentrations)
# From the text: as §1, §2, §3, §4, §5, §6, §7, §8, §9
# [6] = Solubility in water and at pH 7.4; assay type: physicochemical
# From the text: Un grand nombre des composés de l'invention manifestent une augmentation de la solubilité dans l'eau ainsi que de la solubilité à pH 7,4 lorsqu'on compare avec les composés de référence. L'augmentation de solubilité au pH physiologique peut favoriser l'absorption du produit et la solubilité élevée dans l'eau permet l'administration du composé par voie parentérale.
# [7] = test system: Strep. faecalis ATCC 10541; test: Antimicrobial activity, agar dilution; assay type: cell-based, Streptococcus faecalis; details: Enterococcus faecalis, ATCC10541, 20 h, Agar Dextrose dilutions, 37°C, 20 heures, read-out: Activité pharmacologique antimicrobienne (concentrations)
# From the text: as §1, §2, §3, §4, §5, §6, §7, §8, §9
# [8] = test system: Ps. aeruginosa ATCC 10145; test: Antimicrobial activity, agar dilution; assay type: cell-based; details: Pseudomonas aeruginosa, ATCC10145, 20 h, Agar Dextrose dilutions, 37°C, 20 heures, read-out: Activité pharmacologique antimicrobienne (concentrations)
# From the text: as §1, §2, §3, §4, §5, §6, §7, §8, §9
# Sal. typhi ATCC 6539 = test: Antimicrobial activity, agar dilution; assay type: cell-based; details: Salmonella enterica, 20 h, read-out: Activité pharmacologique antimicrobienne (concentrations)
# From the text: as §1, §2, §3, §4, §5, §6, §7, §8, §9
# Ps. aeruginosa ATCC 9721 = test: Antimicrobial activity, agar dilution; assay type: cell-based; details: Pseudomonas aeruginosa, ATCC9721, 20 h, Agar Dextrose dilutions, 37°C, 20 heures, read-out: Activité pharmacologique antimicrobienne (concentrations)
# From the text: as §1, §2, §3, §4, §5, §6, §7, §8, §9
# [9] = test system: Escherichia coli ATCC 10799; test: Antimicrobial activity, agar dilution; assay type: cell-based; details: Escherichia coli, ATCC10799, 20 h, Agar Dextrose dilutions, 37°C, 20 heures, read-out: Activité pharmacologique antimicrobienne (concentrations)
# From the text: as §1, §2, §3, §4, §5, §6, §7, §8, §9
# [10] = test system: Staph. epidermidis ATCC 155-1; test: Antimicrobial activity, agar dilution; assay type: cell-based; details: Staphylococcus epidermidis, ATCC155, 20 h, Agar Dextrose dilutions, 37°C, 20 heures, read-out: Activité pharmacologique antimicrobienne (concentrations)
# From the text: as §1, §2, §3, §4, §5, §6, §7, §8, §9
# [11] = test system: Bacillus subtilis ATCC 6633; test: Antimicrobial activity, agar dilution; assay type: cell-based; details: ATCC6633, 20 h, Agar Dextrose dilutions, 37°C, 20 heures, read-out: Activité pharmacologique antimicrobienne (concentrations)
# From the text: as §1, §2, §3, §4, §5, §6, §7, §8, §9
# [12] = test system: Shigella flexnerii ATCC 12022; test: Antimicrobial activity, agar dilution; assay type: cell-based; details: ATCC12022, 20 h, Agar Dextrose dilutions, 37°C, 20 heures, read-out: Activité pharmacologique antimicrobienne (concentrations)
# From the text: as §1, §2, §3, §4, §5, §6, §7, §8, §9
# [13] = test system: Bacillus cereus ATCC 11778; test: Antimicrobial activity, agar dilution; assay type: cell-based; details: Bacillus cereus, ATCC11778, 20 h, Agar Dextrose dilutions, 37°C, 20 heures, read-out: Activité pharmacologique antimicrobienne (concentrations)
# From the text: as §1, §2, §3, §4, §5, §6, §7, §8, §9
# [14] = test system: Proteus vulgaris ATCC 8427; test: Antimicrobial activity, agar dilution; assay type: cell-based; details: Proteus vulgaris, ATCC8427, 20 h, Agar Dextrose dilutions, 37°C, 20 heures, read-out: Activité pharmacologique antimicrobienne (concentrations)
# From the text: as §1, §2, §3, §4, §5, §6, §7, §8, §9
# Morg. morganii ATCC 8019 = test: Antimicrobial activity, agar dilution; assay type: cell-based; details: Morganella morganii, ATCC8019, 20 h, Agar Dextrose dilutions, 37°C, 20 heures, read-out: Activité pharmacologique antimicrobienne (concentrations)
# From the text: as §1, §2, §3, §4, §5, §6, §7, §8, §9
# [15] = test system: Escherichia coli ATCC 23559; test: Antimicrobial activity, agar dilution; assay type: cell-based; details: Escherichia coli, ATCC23559, 20 h, Agar Dextrose dilutions, 37°C, 20 heures, read-out: Activité pharmacologique antimicrobienne (concentrations)
# From the text: as §1, §2, §3, §4, §5, §6, §7, §8, §9
Structure (SMILES),MIC [1],MIC (Staph. aureus ATCC 25178),MIC [2],MIC [3],MIC [4],MIC (Ent. cloacae ATCC 23355),MIC [5],solubility ([6]; pH 7),solubility ([6]; water),MIC [7],MIC [8],MIC (Sal. typhi ATCC 6539),MIC (Ps. aeruginosa ATCC 9721),MIC [9],MIC [10],MIC [11],MIC [12],MIC [13],MIC [14],MIC (Morg. morganii ATCC 8019),also measured
"CC(C)C[C@H](N)C(=O)NC1CN(c2nc3c(cc2F)c(=O)c(C(=O)O)cn3-c2ccc(F)cc2F)C1 [Exemple 4bL, chlorhydratede l'acide 7-(3-Leu-amino-1-azétidinyl)-1-(2,4-difluorophényl)-6-fluoro-1,4-dihydro-4-oxo-1,8-naphtyridine-3-carboxylique]",1 µg/mL,4 µg/mL,0.12 µg/mL,1 µg/mL,0.5 µg/mL,0.5 µg/mL,2 µg/mL,23.1 µg/mL,> 500 µg/mL,1 µg/mL,8 µg/mL,1 µg/mL,4 µg/mL,1 µg/mL,1 µg/mL,0.25 µg/mL,0.25 µg/mL,0.5 µg/mL,2 µg/mL,2 µg/mL,MIC [15]: 0.25 µg/mL
"NC1CN(c2nc3c(cc2F)c(=O)c(C(=O)O)cn3-c2ccc(F)cc2F)C1 [Exemple 1b, acide 7-(3-amino-1-azétidinyl)-1-(2,4-difluorophényl)-6-fluoro-1,4-dihydro-4-oxo-1,8-naphtyridine-3-carboxylique, reference compound]",–,–,–,–,–,–,–,3.7 µg/mL,3 µg/mL,–,–,–,–,–,–,–,–,–,–,–,–
"CCn1cc(C(=O)O)c(=O)c2cnc(N3CCNCC3)nc21 [Acide pipémidique, reference compound]",8 µg/mL,64 µg/mL,2 µg/mL,4 µg/mL,32 µg/mL,8 µg/mL,16 µg/mL,–,–,> 64 µg/mL,32 µg/mL,4 µg/mL,32 µg/mL,16 µg/mL,64 µg/mL,8 µg/mL,4 µg/mL,16 µg/mL,16 µg/mL,8 µg/mL,MIC [15]: 2 µg/mL
